SMILES strings stand for the structures.

The target in this assay is T1, human derived GPR40 (Homo sapiens, UniProt O14842).
T1 construct: expressed in transfected cells
T1 sequence (O14842 whole entry): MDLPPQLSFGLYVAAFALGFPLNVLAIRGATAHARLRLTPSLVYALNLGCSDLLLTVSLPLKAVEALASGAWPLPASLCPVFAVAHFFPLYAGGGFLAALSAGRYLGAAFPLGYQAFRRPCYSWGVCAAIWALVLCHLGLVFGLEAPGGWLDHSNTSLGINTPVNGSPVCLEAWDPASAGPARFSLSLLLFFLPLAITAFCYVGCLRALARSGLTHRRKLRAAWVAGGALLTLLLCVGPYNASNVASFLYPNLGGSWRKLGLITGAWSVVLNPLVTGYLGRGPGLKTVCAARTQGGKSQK
The assay is described as follows: Agonist action on human derived GPR40: change of intracellular calcium concentration in CHO cells (FLIPRtetra). The format is cell-based. To be noted: agonist activity of compound at 1 μM, relative to 10 μM γ linolenic acid as 100%, wave peak height; CHO cells stably expressing human GPR40. The procedure:
The CHO cell lines that stably expressed human derived GPR40 were used for the determination of the agonist activity. Unless particularly specified, the CHO cell lines were cultured in an α-MEM medium (Wako Pure Chemical Industries, Ltd.) containing 10% dialyzed fetal bovine serum (TRA Thermo Electron).
The cells cultured almost to confluent on the day before assay were rinsed with PBS (Invitrogen), detached with 0.5 mM EDTA (Wako Pure Chemical Industries, Ltd.), and recovered by centrifugation. The obtained cells were counted, diluted to 2×10^5 cells per 1 mL medium, dispensed by 40 μL per well to a 384 well black clear bottomplate (PE Biosystems), and cultured overnight in a CO2 incubator. Various test compounds were added to CHO cells prepared as mentioned above, and change of intracellular calcium concentration was measured using FLIPRtetra (Molecular Device). For the measurement by this device, a Calcium 4 assay kit (Molecular Devices: R8142) was used.
First, fatty acid free BSA at the final concentration of 0.1% was added to the buffer attached to the kit to prepare an assay buffer. Using the assay buffer, a loading solution with Fluo4 was prepared such that the final concentration of fatty acid free BSA was 0.1% and the final concentration of probenecid was 625 μM. On the other hand, a test compound was diluted with the assay buffer to a given concentration, and dispensed to the polypropylene 384-well plate (sample plate). The medium was removed from the cell culture plate, and the loading solution with Fluo4 was dispensed by 25 μL. After culture in a CO2 incubator at 37° C. for 40 min, a sample plate and a cell plate were simultaneously set on the FLIPRtetra, various test compounds were added by 25 μL according to the program of the device, and change of intracellular calcium concentration was measured. The agonist activity of each compound at 1 μM was calculated as a relative activity value to the activity of 10 μM γ linolenic acid as 100% from the wave peak height.
As to `Cc1nc(N2CCOCC2)nc(C)c1-c1cccc(CNc2ccc3c(c2)OC[C@H]3CC(=O)O)c1C` [Example 242, 1,3-dihydroxy-2-(hydroxymethyl)propan-2-aminium [(3S)-6-({3[4,6-dimethyl-2-(morpholin-4-yl)pyrimidin-5-yl]-2-methylbenzyl}amino)-2,3-dihydro-1-benzofuran-3-yl]acetate], the “activity (%)” value came out at 121%. Then `CCc1nc2ccc(F)c(F)c2n1-c1cccc2c1OC[C@H]2Nc1ccc2c(c1)OC[C@H]2CC(=O)[O-].[Na+]` [Example 31, sodium [(3S)-6-{[(3S)-7-(2-ethyl-6,7-difluoro-1H-benzimidazol-1-yl)-2,3-dihydro-1-benzofuran-3-yl]amino}-2,3-dihydro-1-benzofuran-3-yl]acetate], with 127%. Then `Cc1cc(-c2cccc3c2OC[C@H]3Nc2ccc3c(c2)OC[C@H]3CC(=O)O)c(C)s1` [Example 3, [(3S)-6-{[(3S)-7-(2,5-dimethylthiophen-3-yl)-2,3-dihydro-1-benzofuran-3-yl]amino}-2,3-dihydro-1-benzofuran-3-yl]acetic acid], with 128%; and `Cc1nc2ccccn2c1-c1cccc(CNc2ccc3c(c2)OC[C@H]3CC(=O)O)c1C` [Example 201, [(3S)-6-{[2-methyl-3-(2-methylimidazo[1,2-a]pyridin-3-yl)benzyl]amino}-2,3-dihydro-1-benzofuran-3-yl]acetic acid], with 124%; and `Cc1cc(-c2cccc(CNc3ccc4c(c3)OC[C@H]4CC(=O)O)c2F)c(C)s1` [Example 121, [(3S)-6-{[3-(2,5-dimethylthiophen-3-yl)-2-fluorobenzyl]amino}-2,3-dihydro-1-benzofuran-3-yl]acetic acid], with 129%.

In the case of `Cc1nc(N2CCOCC2)nc(C)c1-c1cccc2c1OC[C@H]2Nc1ccc2c(c1)OC[C@H]2CC(=O)O` [Example 77-2, [(3S)-6-({(3S)-7-[4,6-dimethyl-2-(morpholin-4-yl)pyrimidin-5-yl]-2,3-dihydro-1-benzofuran-3-yl}amino)-2,3-dihydro-1-benzofuran-3-yl]acetic acid], the “activity (%)” value turned out to be 132%. As for `CCOc1nc2ccc(F)cc2n1-c1cccc2c1OC[C@H]2Nc1ccc2c(c1)OC[C@H]2CC(=O)[O-].[Na+]` [Example 25, sodium [(3S)-6-{[(3S)-7-(2-ethoxy-6-fluoro-1H-benzimidazol-1-yl)-2,3-dihydro-1-benzofuran-3-yl]amino}-2,3-dihydro-1-benzofuran-3-yl]acetate], the “activity (%)” value is 129%. As for `Cc1ccc(CNc2ccc3c(c2)OC[C@H]3CC(=O)O)c(C)c1-c1ccc2nc(C(F)(F)F)cn2c1` [Example 219, [(3S)-6-({2,4-dimethyl-3-[2-(trifluoromethyl)imidazo[1,2-a]pyridin-6-yl]benzyl}amino)-2,3-dihydro-1-benzofuran-3-yl]acetic acid], the “activity (%)” value is recorded as 125%. Then `Cc1oc2ncccc2c1-c1cccc(CNc2ccc3c(c2)OC[C@H]3CC(=O)O)c1C` [Example 223, [(3S)-6-{[2-methyl-3-(2-methylfuro[2,3-b]pyridin-3-yl)benzyl]amino}-2,3-dihydro-1-benzofuran-3-yl]acetic acid], with 111%. For the molecule `CCOc1nc2c(F)cc(F)cc2n1-c1cccc2c1OC[C@H]2Nc1ccc2c(c1)OC[C@H]2CC(=O)[O-].[Na+]` [Example 37, sodium [(3S)-6-{[(3S)-7-(2-ethoxy-4,6-difluoro-1H-benzimidazol-1-yl)-2,3-dihydro-1-benzofuran-3-yl]amino}-2,3-dihydro-1-benzofuran-3-yl]acetate], the “activity (%)” value was determined as 117%. The result for `COc1ccc(-c2c(C(F)(F)F)ccc(CNc3ccc4c(c3)OC[C@H]4CC(=O)O)c2C)cn1` [Example 207, [(3S)-6-{[3-(6-methoxypyridin-3-yl)-2-methyl-4-(trifluoromethyl)benzyl]amino}-2,3-dihydro-1-benzofuran-3-yl]acetic acid] reads 121%; that for `Cc1nn(C(F)F)c(C)c1-c1cccc2c1OCC2Nc1ccc2c(c1)OC[C@H]2CC(=O)O` (stereo partly drawn) [Example 67, [(3S)-6-({7-[1-(difluoromethyl)-3,5-dimethyl-1H-pyrazol-4-yl]-2,3-dihydro-1-benzofuran-3-yl}amino)-2,3-dihydro-1-benzofuran-3-yl]acetic acid], 111%; that for `O=C([O-])C[C@@H]1COc2cc(N[C@@H]3COc4c3cccc4N3CCOc4ccccc43)ccc21.[Na+]` [Example 86, sodium [(3S)-6-{[(3S)-7-(2,3-dihydro-4H-1,4-benzooxazin-4-yl)-2,3-dihydro-1-benzofuran-3-yl]amino}-2,3-dihydro-1-benzofuran-3-yl]acetate], 128%. Then `Cc1nn(C(F)F)c(C)c1-c1cccc(CNc2ccc3c(c2)OC[C@H]3CC(=O)O)c1C` [Example 109, [(3S)-6-({3-[1-(difluoromethyl)-3,5-dimethyl-1H-pyrazol-4-yl]-2-methylbenzyl}amino)-2,3-dihydro-1-benzofuran-3-yl]acetic acid], with 122%; and `Cc1c(CNc2ccc3c(c2)OC[C@H]3CC(=O)O)cccc1-n1c(C)nc2cc(C(F)(F)F)ccc21` [Example 131, [(3S)-6-({2-methyl-3-[2-methyl-5-(trifluoromethyl)-1H-benzimidazol-1-yl]benzyl}amino)-2,3-dihydro-1-benzofuran-3-yl]acetic acid], with 129%; and `CCCN(c1ccc(F)cn1)c1cccc(CNc2ccc3c(c2)OC[C@H]3CC(=O)O)c1C` [Example 232, [(3S)-6-({3-[(5-fluoropyridin-2-yl)(propyl)amino]-2-methylbenzyl}amino)-2,3-dihydro-1-benzofuran-3-yl]acetic acid], with 121%. Then `Cc1nc2ccc(OCC(F)(F)F)cc2n1-c1cccc2c1OC[C@H]2Nc1ccc2c(c1)OC[C@H]2CC(=O)[O-].[Na+]` [Example 99, sodium [(3S)-6-({(3S)-7-[2-methyl-6-(2,2,2-trifluoroethoxy)-1H-benzimidazol-1-yl]-2,3-dihydro-1-benzofuran-3-yl}amino)-2,3-dihydro-1-benzofuran-3-yl]acetate], with 123%.

For the molecule `Cc1nc(OC(F)F)nc(C)c1-c1cccc(CNc2ccc3c(c2)OC[C@H]3CC(=O)O)c1C` [Example 114, [(3S)-6-({3-[2-(difluoromethoxy)-4,6-dimethylpyrimidin-5-yl]-2-methylbenzyl}amino)-2,3-dihydro-1-benzofuran-3-yl]acetic acid], the “activity (%)” value is given as 132%. The result for `Cc1c(CNc2ccc3c(c2)OC[C@H]3CC(=O)O)cccc1-n1c(C)nc2c(C)cccc21` [Example 153, [(3S)-6-{[3-(2,4-dimethyl-1H-benzimidazol-1-yl)-2-methylbenzyl]amino}-2,3-dihydro-1-benzofuran-3-yl]acetic acid] reads 111%; that for `CCc1nc2ccc(Cl)cc2n1-c1cccc(CNc2ccc3c(c2)OC[C@H]3CC(=O)[O-])c1C.[Na+]` [Example 173, sodium [(3S)-6-{[3-(6-chloro-2-ethyl-1H-benzimidazol-1-yl)-2-methylbenzyl]amino}-2,3-dihydro-1-benzofuran-3-yl]acetate], 121%.
